According to ChEMBL document CHEMBL3286376, “Design, synthesis and biological evaluation of hydroxy- or methoxy-substituted 5-benzylidene(thio) barbiturates as novel tyrosinase inhibitors” (Bioorg Med Chem, 2014):
The source made the active and inactive calls. The rule behind the calls is not given here.

How the values were obtained:
[1] = biological target: T1, Tyrosinase (Agaricus bisporus) (UniProt O42713); assay: Inhibition of mushroom tyrosinase diphenolase activity using L-DOPA as substrate assessed as formation of DOPAchrome at 100 uM preincubated for 10 mins followed by substrate addition measured for 1 min relative to control
T1 sequence (whole entry): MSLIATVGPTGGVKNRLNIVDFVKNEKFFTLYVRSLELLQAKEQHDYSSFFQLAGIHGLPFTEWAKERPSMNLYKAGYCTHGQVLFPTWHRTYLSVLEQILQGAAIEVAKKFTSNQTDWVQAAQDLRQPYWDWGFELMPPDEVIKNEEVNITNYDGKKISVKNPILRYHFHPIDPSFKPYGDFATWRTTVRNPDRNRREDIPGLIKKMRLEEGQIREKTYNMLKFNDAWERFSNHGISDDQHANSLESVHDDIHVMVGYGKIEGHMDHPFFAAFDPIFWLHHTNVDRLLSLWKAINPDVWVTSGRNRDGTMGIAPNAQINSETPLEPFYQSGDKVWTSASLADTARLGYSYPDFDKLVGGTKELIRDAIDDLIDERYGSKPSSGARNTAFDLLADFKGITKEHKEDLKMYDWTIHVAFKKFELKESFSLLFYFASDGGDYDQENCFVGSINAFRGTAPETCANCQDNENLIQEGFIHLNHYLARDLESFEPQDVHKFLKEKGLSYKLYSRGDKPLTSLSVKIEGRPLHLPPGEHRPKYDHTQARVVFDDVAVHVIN

[2] = biological target: T1, Tyrosinase (Agaricus bisporus); assay: Irreversible inhibition of mushroom tyrosinase diphenolase activity assessed as oxidation of L-DOPA at 1 to 2 uM
Tyrosinase = biological target: T2, Tyrosinase (Agaricus bisporus, UniProt O42713)
T2 sequence (O42713 whole entry): T1 sequence (whole entry)
Description: Inhibition of mushroom tyrosinase diphenolase activity using L-DOPA as substrate assessed as formation of DOPAchrome preincubated for 10 mins followed by substrate addition measured for 1 min

[3] = biological target: T1, Tyrosinase (Agaricus bisporus); assay: Irreversible inhibition of mushroom tyrosinase diphenolase activity assessed as oxidation of L-DOPA at 5 to 10 uM

Structure (SMILES)	inhibition [1]	IC50 (Tyrosinase)	further results
COc1ccc(C=C2C(=O)NC(=S)NC2=O)cc1O	< 20%	–	–
O=C1NC(=O)C(=Cc2ccc(O)c(O)c2)C(=O)N1	–	1.52 µM	inhibition [2]: Active
O=C1NC(=S)NC(=O)C1=Cc1ccccc1O	< 20%	–	–
O=C1NC(=O)C(=Cc2c(O)cc(O)cc2O)C(=O)N1	< 20%	–	–
O=C1NC(=O)C(=Cc2ccc(O)c(O)c2O)C(=O)N1	< 20%	–	–
COc1cc(C=C2C(=O)NC(=S)NC2=O)ccc1O	–	7.8 µM	–
COc1cc(C=C2C(=O)NC(=O)NC2=O)ccc1O	–	5.5 µM	–
O=C1NC(=S)NC(=O)C1=Cc1ccc(O)c(O)c1	–	6.1 µM	inhibition [3]: Active
COc1cc(C=C2C(=O)NC(=O)NC2=O)cc(OC)c1OC	< 20%	–	–
COc1cc(C=C2C(=O)NC(=S)NC2=O)cc(OC)c1OC	< 20%	–	–
O=C1NC(=S)NC(=O)C1=Cc1ccc(O)cc1O	< 20%	–	–
COc1ccc(C=C2C(=O)NC(=O)NC2=O)cc1O	< 20%	–	–
O=C1NC(=O)C(=Cc2ccc(O)cc2O)C(=O)N1	–	17.2 µM	–
O=Cc1ccc(O)c(O)c1	< 20%	–	–
O=C1NC(=S)NC(=O)C1=Cc1cc(O)c(O)c(O)c1	–	7.14 µM	–
COc1ccc(C=C2C(=O)NC(=O)NC2=O)cc1	–	100 µM	–
O=C1NC(=S)NC(=O)C1=Cc1c(O)cc(O)cc1O	< 20%	–	–
O=C1NC(=S)NC(=O)C1=Cc1ccc(O)c(O)c1O	–	95.8 µM	–
COc1ccc(C=C2C(=O)NC(=S)NC2=O)cc1	–	70.1 µM	–
O=C1CC(=O)NC(=O)N1	< 20%	–	–
O=C1NC(=O)C(=Cc2ccccc2O)C(=O)N1	< 20%	–	–
O=C1NC(=O)C(=Cc2cccc(O)c2)C(=O)N1	< 20%	–	–
O=C1CC(=O)NC(=S)N1	< 20%	–	–
O=C1NC(=S)NC(=O)C1=Cc1cccc(O)c1	< 20%	–	–
O=C1NC(=O)C(=Cc2cc(O)c(O)c(O)c2)C(=O)N1	–	5.51 µM	–
